The text below walks through data of patent US9133158B2, “Bicyclic dihydroisoquinoline-1-one derivatives” (Hoffmann-La Roche Inc., priority 2011, dated 2015).

The target in one experiment is T1, human CYP11B1 (Homo sapiens, UniProt P15538).
T1 construct: expressed in transfected cells
T1 sequence (P15538 25-503): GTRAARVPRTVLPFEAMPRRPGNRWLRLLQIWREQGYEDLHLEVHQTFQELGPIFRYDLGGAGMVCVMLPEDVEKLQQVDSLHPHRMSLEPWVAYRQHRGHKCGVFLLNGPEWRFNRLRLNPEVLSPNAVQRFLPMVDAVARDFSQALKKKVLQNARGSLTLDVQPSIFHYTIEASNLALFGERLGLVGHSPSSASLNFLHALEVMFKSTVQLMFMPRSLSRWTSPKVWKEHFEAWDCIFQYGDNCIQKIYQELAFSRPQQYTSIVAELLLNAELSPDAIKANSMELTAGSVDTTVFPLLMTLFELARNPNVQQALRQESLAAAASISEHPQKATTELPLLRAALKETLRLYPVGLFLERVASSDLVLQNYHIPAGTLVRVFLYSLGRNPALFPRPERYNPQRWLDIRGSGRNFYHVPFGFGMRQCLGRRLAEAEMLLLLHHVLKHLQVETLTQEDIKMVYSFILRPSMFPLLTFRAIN
Briefly: G-402 cellular enzyme assay, human CYP11B1 (cortisol release, HTRF). Conditions: G-402 cells, 1 μM Deoxycortisol. In kind it is cell-based. The essentials:
(§1)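 Stable G-402 transfectants; 16 h incubation with inhibitor plus substrate — CYP11B2: 1 μM deoxycorticosterone, aldosterone read; CYP11B1: 1 μM deoxycortisol, cortisol read. HTRF on supernatant. Medium DMEM/F12, 2.5% charcoal FCS. EC50 via MMF sigmoidal fit.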

For the next experiment, the target named is T2, human CYP11B2 (Homo sapiens, UniProt P19099).
T2 construct: expressed in transfected cells
T2 sequence (P19099 25-503): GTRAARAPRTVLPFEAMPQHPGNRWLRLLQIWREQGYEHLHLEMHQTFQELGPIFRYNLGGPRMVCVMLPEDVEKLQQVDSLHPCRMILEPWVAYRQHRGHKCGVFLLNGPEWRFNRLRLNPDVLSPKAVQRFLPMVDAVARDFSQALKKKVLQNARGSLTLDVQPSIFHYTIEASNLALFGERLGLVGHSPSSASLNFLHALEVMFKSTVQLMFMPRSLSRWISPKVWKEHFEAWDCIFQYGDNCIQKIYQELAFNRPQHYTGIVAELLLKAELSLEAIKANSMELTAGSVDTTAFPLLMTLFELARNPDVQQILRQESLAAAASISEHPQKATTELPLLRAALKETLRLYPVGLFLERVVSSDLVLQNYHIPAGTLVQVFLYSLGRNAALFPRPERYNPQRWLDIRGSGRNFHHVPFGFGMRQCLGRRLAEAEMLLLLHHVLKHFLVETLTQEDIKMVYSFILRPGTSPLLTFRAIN
Kind of experiment: G-402 cellular enzyme assay, human CYP11B2 (aldosterone release, HTRF). In kind it is cell-based. Conditions: G-402 cells, 1 μM Deoxycorticosterone. A digest of the protocol:
as §1
For orientation: TR-FRET usually uses a lanthanide donor and a delayed reading to cut background.

pEC50: −log10 of the molar value.

With `CC(C)Oc1cncc(N2CCc3cc(Cl)ccc3C2=O)c1` [Example 11, 6-Chloro-2-(5-isopropoxy-pyridin-3-yl)-3,4-dihydro-2H-isoquinolin-1-one], the pEC50 at human CYP11B1 was 6.59; at human CYP11B2 it was 7.90.
Take `CC[C@H]1c2cc(Cl)ccc2C(=O)N1c1cncc2c1CC[C@H]2NC(C)=O` (single isomer, unassigned) [Example 343]: the results for the pEC50 on human CYP11B1 and on human CYP11B2 were 5.33 and 6.87, respectively.
The corresponding values for `CC[C@H]1c2cc(Cl)ccc2C(=O)N1c1cncc2c1CCC[C@H]2NS(C)(=O)=O` (single isomer, unassigned) [Example 350, N-[(R or S)-4-((S or R)-5-Chloro-3-ethyl-1-oxo-1,3-dihydro-isoindol-2-yl)-5,6,7,8-tetrahydro-isoquinolin-8-yl]-methanesulfonamide] are 5.43 and 7.23.
On to `Cc1nccn1Cc1cncc(N2Cc3cc(Cl)ccc3C2=O)c1` [Example 111, 5-Chloro-2-[5-(2-methyl-imidazol-1-ylmethyl)-pyridin-3-yl]-2,3-dihydro-isoindol-1-one], for which the pEC50 was 6.03 on human CYP11B1 and 7.19 at human CYP11B2.
The corresponding values for `Nc1cccc2c(N3CCc4cc(Cl)ccc4C3=O)cncc12` [Example 288, 8′-Amino-6-chloro-3,4-dihydro-[2,4′]biisoquinolinyl-1-one] are 5.05 and 6.27.
The matching figures for `CC(=O)N1CCN(c2cncc(N3C(=O)c4ccc(Cl)cc4C3(C)C)c2)CC1` [Example 455, 2-[5-(4-Acetyl-piperazin-1-yl)-pyridin-3-yl]-5-chloro-3,3-dimethyl-2,3-dihydro-isoindol-1-one]: 6.14 and 8.07.
`CN1CCN(Cc2cncc(N3C(=O)c4ccc(Cl)cc4C3(C)C)c2)C1=O` [Example 414, 5-Chloro-3,3-dimethyl-2-[5-(3-methyl-2-oxo-imidazolidin-1-ylmethyl)-pyridin-3-yl]-2,3-dihydro-isoindol-1-one]: the pEC50 at human CYP11B1 was 5.69; on human CYP11B2 it was 7.52.
As to `CC1(C)c2cc(Cl)ccc2C(=O)N1c1cnccc1Cl` [Example 285, 5-Chloro-2-(4-chloro-pyridin-3-yl)-3,3-dimethyl-2,3-dihydro-isoindol-1-one], the figures for the pEC50 at human CYP11B1 and at human CYP11B2 were 6.45 and 8.12, respectively.
As for `CCc1ccc(C(O)c2cncc(N3CCc4cc(Cl)ccc4C3=O)c2)cc1` (stereo not drawn) [Example 33, 6-Chloro-2-{5-[(4-ethyl-phenyl)-hydroxy-methyl]-pyridin-3-yl}-3,4-dihydro-2H-isoquinolin-1-one], the figures for the pEC50 on human CYP11B1 and at human CYP11B2 were 6.31 and 6.68, respectively.
The corresponding values for `CS(=O)(=O)NC1CCc2c1cncc2N1Cc2cc(Cl)ccc2C1=O` (single isomer, unassigned) [Example 334, N-[(R or S)-4-(5-Chloro-1-oxo-1,3-dihydro-isoindol-2-yl)-6,7-dihydro-5H-[2]pyrindin-7-yl]-methanesulfonamide] are 4.46 and 6.42.
`O=C1c2ccc(Cl)cc2CCN1c1cncc(CN2CCCC(O)C2)c1` (stereo not drawn) [Example 144, 6-Chloro-2-[5-(3-hydroxy-piperidin-1-ylmethyl)-pyridin-3-yl]-3,4-dihydro-2H-isoquinolin-1-one]: the pEC50 at human CYP11B1 was 6.85; on human CYP11B2 it was 7.63.
The corresponding values for `CC[C@@H]1c2cc(Cl)ccc2C(=O)N1c1cncc2c1CC[C@H]2NC(C)=O` (single isomer, unassigned) [Example 344, (+)-N—[(R or S)-4-((R or S)-5-Chloro-3-ethyl-1-oxo-1,3-dihydro-isoindol-2-yl)-6,7-dihydro-5H-[2]pyrindin-7-yl]-acetamide] are 5.82 and 7.51.

A word on the pEC50: it is −log10 of the EC50, conventionally taken in molar units. Low readings indicate a large EC50, high ones a small EC50.
